# Patent US6972111B1, “Rosin amine anti-fouling agents” (Bayer Aktiengesellschaft, priority 1999, dated 2005)
# System: cyprid larvae of the barnacle Balanus amphitrite
# Assay: Settlement assay of cyprid larvae of the barnacle Balanus amphitrite
# Format: in vivo
# Conditions: cyprid larvae in seawater test solution, 27° C.±2; Spearman-Kärber method
# Procedure: The rate of settlement of laboratory reared cyprid larvae of the barnacle Balanus amphitrite was determined for testing the activity of candidate anti-fouling compounds. Settlement Assay Tests are carried out in four replicates in sterile polystyrene multi well plates. Between 25 and 40 cyprid larvae are injected in the dishes containing either 2 ml of test solution (see below), solvent control or a positive control (Dichloro-n-octyl-isothiazolinone). Dishes are incubated for 24 h at a temperature of 27° C.±2. After incubation the cyprids are screened for signs of toxicity. Larvae are classified in three categories: A) alive and swimming; B) alive but not active; C) dead. The test is terminated by addition of a drop of 20% formaldehyde and the numbers of settled and non-settled larvae are counted. Settlement is evaluated as follows: 1) Non settled: not attached free swimming cyprids; 2) settled cyprids: attached, but not metamorphosed cyprids; 3) barnacles: attached juvenile barnacles. Categories 2 and 3 are considered to be settled. Percentage settlement in test solution is compared with controls. Estimates of the median effect concentration (EC-50) after […]. are calculated using the Spearman-Kärber method. All seawater used is of natural origin and filtered unto 0.2 micron. […]
smiles,measurement,value
"CCCCCCCCn1sc(Cl)c(Cl)c1=O [reference*, 4,5-dichloro-n-octylisothiazolinone]",EC50 for settlement inhibition in ppm,0.37 ppm
